In patent publication US8759099B2, “Pancreatic islet separation method, and protective solution for protecting pancreatic islet tissue” (Otsuka Pharmaceutical Factory, Inc., priority 2010, dated 2014):

System: mouse islets
Experiment: LDH leakage cytotoxicity of mouse islets cultured in the presence of neutrophil elastase
Assay type: cell-based
Settings: FIG. 3
Experimental: The concentration of the neutrophil elastase inhibitor used in the isolation method of the present invention was examined as follows using the extracellular leakage of LDH (lactate dehydrogenase) (indicator for cytotoxicity) as an indicator.
First, mouse islets were cultured in the presence of neutrophil elastase at a concentration of 0.31 to 10 μg/mL and the supernatant was collected after a lapse of a certain time. Subsequently, the remaining mouse islets were homogenized and the islet suspension was collected. LDH contained in the collected supernatant and the islet suspension was measured by using a LDH assay kit to measure absorbance at 562 nm. The optimal concentration of the neutrophil elastase inhibitor was examined by adding 2 to 200 μM of the neutrophil elastase inhibitor, sivelestat, in culturing mouse islets in the presence of various concentrations of neutrophil elastase, and similarly measuring the amount of LDH. The cytotoxicity was expressed as the percentage (%) of the amount of LDH contained in the supernatant in the sum of the amount of LDH contained in the supernatant and the amount of LDH contained in the islet suspension.

Compound: CC(C)(C)C(=O)Oc1ccc(S(=O)(=O)Nc2ccccc2C(=O)NCC(=O)O)cc1 [sivelestat]
- optimal concentration of the neutrophil elastase inhibitor (from suppression of LDH leakage among 2, 20, 200 μM): 20 µM
- damage of islet cells (cytotoxicity, LDH in supernatant as % of total LDH) (mouse islets with neutrophil elastase 0.31 to 10 μg/mL, 2, 20 or 200 μM sivelestat compared, result at 20 μM): most suppressed
